# Results published in patent US6706291B1, “Poultry producibility improver and poultry producibility improvement method” (Taiyo Kagaku Co., Ltd., priority 2001, dated 2004).
# How the values were obtained:
# [1] = system: White Leghorn laying hens; assay: Test Example 1: field test on producibility of laying hens (liveability, egg production indices); type: in vivo, chicken; conditions: for Liveability: additive in feed entire breeding period; for Number of Eggs Produced / Weight of Produced Eggs: 30,000 hens/poultry house
# Procedure: White Leghorn laying hens at 121 days of age were housed in poultry houses of the windless vertical 6-shelf cage type and bred therein for 1 year. Eighteen poultry houses A to R (30,000 hens/poultry house) were set, and a field test concerning improvement in producibility by laying hens was carried out.
# The laying hens were fed with a commercially available formula feed for laying hens, and allowed to take water ad libitum.
# As indices for the producibility, there were obtained a liveability, a rate of laying, each egg weight and a weight of eggs produced per day, each item being at 4 months after initiation of the test, and a total number of eggs produced and a total egg weight during the 4-month period from initiation of the test. The same items were also determined at 8 and 12 months after initiation of the test. […] In the following tables, the indications “4M, 8M, 12M” stand for 4 months, 8 months, and 12 months after initiation of the test, respectively.
# [2] = system: eggs of White Leghorn laying hens; assay: Test Example 1: Haugh unit and vitamin E content of eggs during storage; type: in vivo, chicken; conditions: for Haugh Unit / Vitamin E Content: eggs collected after 4 months
# Procedure: Here, the term “Haugh unit” mentioned above refers to an index showing an extent of deterioration of thick albumen and is defined as the numeral calculated using the equation: […]
# wherein H is a height (mm) of thick albumen; and W is an egg weight (g).
# Furthermore, after 4 months from initiation of the test, 20 eggs each were collected from each poultry house. Haugh unit and vitamin E content were determined on the day of collection for 10 of the eggs, and after 2 weeks of storage at 4° C. for the remaining 10 eggs, respectively.
# [3] = system: eggs of Isabrown laying hens; assay: Test Example 2: DHA, EPA, vitamin E content and Haugh unit of eggs during storage; type: in vivo, chicken; conditions: for EPA Content / Haugh Unit / Vitamin E Content / DHA Content: eggs after 4 months; for DHA Content: feed with fish oil and vitamin E
# Procedure: Isabrown laying hens were bred in poultry houses of the windless vertical 2-shelf cage type. Seventeen poultry houses a to q (10,000 hens/poultry house) were set, and a field test concerning suppression of a decrease in highly unsaturated fatty acid content during storage of eggs laid by laying hens was carried out. […] In addition, the laying hens were fed with a feed prepared by adding 2 kg of a fish oil and 10 g of vitamin E to 100 kg of a cormnercially available feed for laying hens. In addition, the laying hens were allowed to take water ad libitum.
# After 4 months from initiation of the test, 20 eggs each were collected from each poultry house. DHA content and EPA content of the eggs, as indices for highly unsaturated fatty acid, were determined on the day of collection for 10 of the eggs, and after 2 weeks of storage at 4° C. for the remaining 10 eggs, respectively. Vitamin E content and Haugh unit were also determined. A change in the DHA content, a change in the EPA content, a change in the vitamin E content, and a change in the Haugh unit are shown in Tables 12, 13, 14 and 15, respectively.
# [4] = system: White Cornish edible chickens; assay: Test Example 3: liveability and weekly body weight gain of edible chickens; type: in vivo, chicken
# Source text: (§1) White Cornish edible chickens were bred for 7 weeks from newly-hatched chickens. The hatched chickens were divided into 17 groups, the groups AA to QQ of 200 chickens per group. […] The edible chickens were fed with a commercially available formula feed for edible chickens, and allowed to take feed and water ad libitum. […] The liveability is shown in Table 17 and the weekly body weight gain in Table 18, respectively. […] Furthermore, changes in the TBA value and in the POV value of each of the breast meat, the leg meat and the chicken fat after storage were determined in the same manner. The cholesterol content is shown in Table 19, the change in the K value after storage in Table 20, the change in the TBA value after storage in Table 21, and the change in the POV value after storage in Table 22, respectively.
# [5] = system: White Cornish edible chickens; assay: Test Example 3: cholesterol content of breast meat, leg meat and chicken fat; type: in vivo
# Source text: as §1
# [6] = system: White Cornish edible chickens; assay: Test Example 3: K value, TBA value, POV value of chicken meat after storage; type: in vivo; conditions: for K Value of Chicken Meat after 10 Days of Storage: storage at 4° C.
# Source text: In the present invention, the expression “keeping freshness of chicken meat” refers to suppression of an increase during storage in a numerical value, such as K value (ratio of inosine and hypoxanthine content to the sum of ATP, ADP, AMP, IMP, inosine and hypoxanthine contents in chicken meat as expressed in percentage), VBN value (a total amount of volatile basic substances, such as ammonia and trimethylamine, in chicken meat), TMA value (trimethylamine content in chicken meat) and polyamine content (total amount of decarboxylated products of free amino acids, such as putrescine, cadaverine, agmatine, histamine, tyramine, tryptamine and spermidine, in chicken meat), metmyoglobin formation ratio (ratio of myoglobin oxidized to metmyoglobin in muscular tissue of chicken meat), TBA value (ratio of fatty acids oxidized to fatty acids in chicken meat), POV value (peroxide value: ratio of oil or fat oxidized in chicken meat), and bacterial cell count (number of bacterial cells in chicken meat). In the present invention, it is preferable that at least one selected from the group consisting of K value, TBA value and POV value is used as an index for keeping freshness of chicken meat. Because the K value is most generally used as an index for freshness, it is more preferable to use the K value as an index for keeping freshness of chicken meat. White Cornish edible chickens were bred for 7 weeks from newly-hatched chickens. The hatched chickens were divided into 17 groups, the groups AA to QQ of 200 chickens per group. […] The edible chickens were fed with a commercially available formula feed for edible chickens, and allowed to take feed and water ad libitum. […] The liveability is shown in Table 17 and the weekly body weight gain in Table 18, respectively. […] Furthermore, changes in the TBA value and in the POV value of each of the breast meat, the leg meat and the chicken fat after storage were determined in the same manner. The cholesterol content is shown in Table 19, the change in the K value after storage in Table 20, the change in the TBA value after storage in Table 21, and the change in the POV value after storage in Table 22, respectively.
# [7] = After 2 Weeks of Storage at 4° C.
# [8] = Immediately After Egg Production
substance,measurement,setting,value
(−)-epigallocatechin gallate,Each Egg Weight,[1]; 4M after initiation of test,58.6 g
same,Rate of Egg Production,[1]; 4M after initiation of test,92.3%
same,Weight of Eggs Produced Per Day,[1]; 4M after initiation of test,53.97 g
same,Liveability,[1]; 4M after initiation of test,98.90%
same,Number of Eggs Produced,[1]; 4M,"295,589 ct"
same,Weight of Produced Eggs,[1]; 4M,"17,321.5 kg"
same,Each Egg Weight,[1]; 8M after initiation of test,61.7 g
same,Rate of Egg Production,[1]; 8M after initiation of test,82.9%
same,Weight of Eggs Produced Per Day,[1]; 8M after initiation of test,51.05 g
same,Liveability,[1]; 8M after initiation of test,97.81%
same,Number of Eggs Produced,[1]; 8M,"714,941 ct"
same,Weight of Produced Eggs,[1]; 8M,"44,111.9 kg"
same,Each Egg Weight,[1]; 12M after initiation of test,63.1 g
same,Rate of Egg Production,[1]; 12M after initiation of test,72.9%
same,Weight of Eggs Produced Per Day,[1]; 12M after initiation of test,47.68 g
same,Liveability,[1]; 12M after initiation of test,95.02%
same,Number of Eggs Produced,[1]; 12M,"1,054,111 ct"
same,Weight of Produced Eggs,[1]; 12M,"66,514.4 kg"
same,"Effect on producibility indices (liveability, rate of egg production, egg weight, eggs produced), in words",[1]; compared with poultry house Q given only an ordinary feed / houses H to R,an effect of addition of these additives was not found
same,"Effect on decrease in Haugh unit and vitamin E content during egg storage, in words",[2]; 2 weeks of storage at 4° C.,no effect was found
same,Haugh Unit,[2]; [7],79.9
same,Vitamin E Content,[2]; [7],2.0 mg based on 100 g of egg yolk solution
same,Haugh Unit,[2]; [8],98.0
same,Vitamin E Content,[2]; [8],3.1 mg based on 100 g of egg yolk solution
same,"Effect on decrease in DHA, EPA, vitamin E content and Haugh unit during egg storage, in words",[3]; 2 weeks of storage at 4° C.,no effect was found
same,EPA Content,[3]; [7],84.0 mg based on 100 g of egg yolk solution
same,Haugh Unit,[3]; [7],80.9
same,Vitamin E Content,[3]; [7],1.7 mg based on 100 g of egg yolk solution
same,EPA Content,[3]; [8],103.8 mg based on 100 g of egg yolk solution
same,Haugh Unit,[3]; [8],96.5
same,Vitamin E Content,[3]; [8],3.0 mg based on 100 g of egg yolk solution
same,DHA Content,[3]; [7],"1,344.0 mg based on 100 g of egg yolk solution"
same,DHA Content,[3]; [8],"1,493.1 mg based on 100 g of egg yolk solution"
same,Weekly Body Weight Gain,[4]; after breeding for 7 weeks,462.5 g
same,Liveability,"[4]; after breeding for 7 weeks, 200 chickens per group",96.33%
same,"Effect on liveability, weekly body weight gain, cholesterol content, K, TBA and POV values, in words",[4]; all indices of Test Example 3,no effect was found
same,Cholesterol Content,[5]; Breast Meat,72.0 mg based on 100 g of chicken meat or chicken fat
same,Cholesterol Content,[5]; Chicken Fat,227.6 mg based on 100 g of chicken meat or chicken fat
same,Cholesterol Content,[5]; Leg Meat,86.0 mg based on 100 g of chicken meat or chicken fat
same,Change in POV Value after 10 Days Storage,[6]; Breast Meat,1.52
same,Change in TBA Value after 10 Days Storage,[6]; Breast Meat,0.44
same,K Value of Chicken Meat after 10 Days of Storage,[6]; Breast Meat,55.3
same,Change in POV Value after 10 Days Storage,[6]; Chicken Fat,1.80
same,Change in TBA Value after 10 Days Storage,[6]; Chicken Fat,0.42
same,Change in POV Value after 10 Days Storage,[6]; Leg Meat,1.53
same,Change in TBA Value after 10 Days Storage,[6]; Leg Meat,0.40
same,K Value of Chicken Meat after 10 Days of Storage,[6]; Leg Meat,55.4
